Laboratory results from patent US20040057913A1, “Antioxidant and skin preparations for external use” (priority 2000, published 2004).

System: ICR male mouse
Test: Mouse ear swelling suppressing activity (TPA-induced edema)
Assay type: in vivo
Settings: applied to the ear 30 minutes before the TPA application; measured 4 hours after TPA; Mozuku extract 0.25 or 0.5 mg/ear, indomethacin 0.2 mg/ear (FIG. 4)
Method: Mouse ear swelling suppressing activity of the Mozuku extract was examined as follows. The thickness of the ear of an ICR male mouse (age: 5 weeks) was measured using a thickness gauge (Digimatic Indicator 543, manufactured by Mitsutoyo Co., Ltd.). The Mozuku extract was applied to the ear in the amount of 0.25 mg/ear or 0.5 mg/ear. As a comparative test, an indomethacin solution, prepared by dissolving indomethacin at a concentration of 1.0% in 70% acetone, was applied to the mouse ear in the amount of 0.2 mg/ear. 30 minutes after the application, 10 μl of a […] solution of 12-O-tetradecanoylphorbol-13-acetate (TPA) in 70% acetone was applied to the in and out sides of the mouse ear to induce a skin reaction. The thickness of the ear skin was measured after 4 hours at which the value of the swelling became the maximum. The ratio of the measured thickness to the thickness of the ear skin before the edema induction was calculated as the ratio of edema. The thickness of both the right and left ear skins was measured and the values were averaged to determine the ear skin thickness of the mouse.

COc1ccc2c(c1)c(CC(=O)O)c(C)n2C(=O)c1ccc(Cl)cc1 [indomethacin]
edema suppressing effect (ratio of edema, ear skin thickness): remarkable edema suppressing effect
